The nature of data set [1]: Aqueous solubility of compound. Type of data set: physicochemical. To be noted: buffer.
Data set [2] in a line: Half life in rat liver microsomes at 1 uM measured up to 60 mins in presence of NADPH generating system. To be noted: 1 h.
Data set [3] can be described thus: in vitro. The note with it: PAMPA.
Description: Permeability of the compound by PAMPA

Converted amounts (≈) assume the structure as drawn. A value given as a limit tells only on which side of the number the result lay.

On to `CCCn1c(=O)c2ccccc2n2c(=S)n(CN(CC)CC3CC3)nc12`, for which the solubility in data set [1] was determined as 8.7 µg/mL (≈ 23.4 µM).
For the compound `O=C(Cc1cccc(C(F)(F)F)c1)NCCCn1c(=O)c2cc(F)ccc2n2c(=S)[nH]nc12`, the t1/2 in data set [2] came to 17.3 min.
On the same count and under the same terms, then `O=C(Cc1ccccc1)NCCCn1c(=O)c2cc(F)ccc2n2c(=S)[nH]nc12`, with 18.7 min; and `O=C(Cc1cccnc1)NCCCn1c(=O)c2cc(F)ccc2n2c(=S)[nH]nc12`, with greater than 30 min.
On to `O=c1c2cc(F)ccc2n2c(=S)[nH]nc2n1CCc1ccccn1`, for which the solubility in data set [1] came to 13 µg/mL (≈ 38.1 µM). For the same compound, the t1/2 in data set [2] is given as greater than 30 min. The compound also returned a Papp in data set [3] of 355 ×10⁻⁶ cm/s.
In data set [1], `O=c1c2ccccc2n2c(=O)[nH]nc2n1CCc1ccccc1` returned a solubility of less than 1 µg/mL.
For the compound `NCCOCCOCCOCCC(=O)NCCCn1c(=O)c2cc(F)ccc2n2c(=S)[nH]nc12`, in data set [1], the solubility was found to be 36.1 µg/mL (≈ 72.7 µM). The t1/2 in data set [2] is greater than 30 min.
For the compound `CS(=O)(=O)NCCn1c(=O)c2cc(F)ccc2n2c(=S)[nH]nc12`, in data set [1], the solubility is greater than 53 µg/mL. Besides, the t1/2 in data set [2] is on record as greater than 30 min.
`O=c1c2cc(F)ccc2n2c(=S)[nH]nc2n1CCP(=O)(O)O` registered a solubility in data set [1] greater than 51 µg/mL.
In the case of `O=c1c2cc(F)ccc2n2c(=S)[nH]nc2n1CCc1ccccc1Cl`, the solubility in data set [1] came to 3 µg/mL (≈ 8 µM). The t1/2 in data set [2] is recorded as 22.8 min.
In data set [1], `CC(C)(C)OC(=O)N1CCN(CCn2c(=O)c3cc(F)ccc3n3c(=S)[nH]nc23)CC1` gave a solubility of 20.5 µg/mL (≈ 45.7 µM). The t1/2 in data set [2] is on record as 26.3 min.
Take `O=C(Cc1cccc(F)c1)NCCCn1c(=O)c2cc(F)ccc2n2c(=S)[nH]nc12`: the solubility in data set [1] is greater than 63 µg/mL. For the same compound, the t1/2 in data set [2] is 26.5 min.
For `CC(C)(C)OC(=O)CC[C@H](N)C(=O)NCCOCCOCCOCCOCCC(=O)NCCCn1c(=O)c2cc(F)ccc2n2c(=S)[nH]nc12` the same measures were greater than 107 µg/mL and greater than 30 min.
Regarding `CC(C)(C)OC(=O)Nc1ccc(CC(=O)NCCCn2c(=O)c3cc(F)ccc3n3c(=S)[nH]nc23)cc1`, the t1/2 in data set [2] is on record as greater than 30 min.
`O=C(NCCCn1c(=O)c2cc(F)ccc2n2c(=S)[nH]nc12)C1CCCCN1` (racemic) came in with a solubility in data set [1] greater than 60 µg/mL. Moreover, the t1/2 in data set [2] is greater than 30 min.
For `CC(C)(C)OC(=O)CC[C@H](N)C(=O)NCCCn1c(=O)c2cc(F)ccc2n2c(=S)[nH]nc12`, in that order: 37.5 µg/mL (≈ 78.4 µM) and greater than 30 min.
With `CCCn1c(=O)c2ccccc2n2c(=S)n(CN(C)C3CC3)nc12`, in data set [1], the solubility result is recorded as “Insoluble”.
`CC(C)(C)OC(=O)N1CC(CCn2c(=O)c3cc(F)ccc3n3c(=S)[nH]nc23)C1`: the solubility in data set [1] stood at 15 µg/mL (≈ 35.8 µM). The same compound came in with a Papp in data set [3] of 229 ×10⁻⁶ cm/s.
In turn, `NCCCCCC(=O)NCCCn1c(=O)c2cc(F)ccc2n2c(=S)[nH]nc12` yielded a solubility in data set [1] of 31.8 µg/mL (≈ 78.2 µM). In addition, in data set [2], the t1/2 is listed as greater than 30 min.
For `COc1ccccc1CC(=O)NCCCn1c(=O)c2cc(F)ccc2n2c(=S)[nH]nc12` the same measures were greater than 65 µg/mL and 16.1 min.
In data set [1], `O=C(Cc1cccc(Cl)c1)NCCCn1c(=O)c2cc(F)ccc2n2c(=S)[nH]nc12` registered a solubility greater than 66 µg/mL. The t1/2 in data set [2] stood at 8.4 min.
For `CC(=O)NCCn1c(=O)c2cc(F)ccc2n2c(=S)[nH]nc12` the same measures were greater than 47 µg/mL and greater than 30 min.
Take `NCCCn1c(=O)c2cccc(F)c2n2c(=S)[nH]nc12`: the t1/2 in data set [2] is recorded as greater than 30 min.
For `CN1CCCC1CCn1c(=O)c2cc(F)ccc2n2c(=S)[nH]nc12` (racemic), the solubility in data set [1] is 17.8 µg/mL (≈ 51.2 µM). For the same compound, the t1/2 in data set [2] is reported as greater than 30 min.
In data set [1], `Cc1nnc2n(CCc3ccccc3)c(=O)c3cc(F)ccc3n12` yielded a solubility of 11 µg/mL (≈ 34.1 µM). In addition, in data set [2], the t1/2 worked out at 10.7 min.
For `O=c1c2cccnc2n2c(=S)[nH]nc2n1CCc1ccccc1` the same measures were 4.9 µg/mL (≈ 15.2 µM) and greater than 30 min.
For `CCCn1c(=O)c2cc(F)ccc2n2c(=S)[nH]nc12`, in that order: greater than 28 µg/mL and greater than 30 min.
`CS(=O)(=O)NCCCn1c(=O)c2cc(F)ccc2n2c(=S)[nH]nc12` came in with a solubility in data set [1] of 34 µg/mL (≈ 91.5 µM). Further, the t1/2 in data set [2] is given as greater than 30 min.
`N[C@@H](CCC(=O)O)C(=O)NCCCn1c(=O)c2cc(F)ccc2n2c(=S)[nH]nc12`: the solubility in data set [1] stood at 32 µg/mL (≈ 75.8 µM). In data set [2], the t1/2 is on record as greater than 30 min.
With `O=C(Cc1ccccc1C(F)(F)F)NCCCn1c(=O)c2cc(F)ccc2n2c(=S)[nH]nc12`, the t1/2 in data set [2] is reported as 3.7 min.
As for `CCOP(=O)(CCn1c(=O)c2cc(F)ccc2n2c(=S)[nH]nc12)OCC`, the solubility in data set [1] is greater than 59 µg/mL. In data set [2], the t1/2 was greater than 30 min.
Regarding `Cc1ccc(CC(=O)NCCCn2c(=O)c3cc(F)ccc3n3c(=S)[nH]nc23)cc1`, the t1/2 in data set [2] is 23.9 min.
Compound `O=C(Cc1ccc(Br)cc1)NCCCn1c(=O)c2cc(F)ccc2n2c(=S)[nH]nc12` displayed a solubility in data set [1] of less than 1 µg/mL. Besides, the t1/2 in data set [2] is recorded as 20.6 min.
`O=C(NCCCn1c(=O)c2cc(F)ccc2n2c(=S)[nH]nc12)C1CCOCC1` showed a solubility in data set [1] of less than 1 µg/mL. Also, in data set [3], the Papp worked out at 8 ×10⁻⁶ cm/s.
For the compound `O=c1c2cc(F)ccc2n2c(=S)[nH]nc2n1CCCc1ccccc1`, the solubility in data set [1] was less than 1 µg/mL. The t1/2 in data set [2] is on record as 8.8 min.
For the compound `N#Cc1ccc(CC(=O)NCCCn2c(=O)c3cc(F)ccc3n3c(=S)[nH]nc23)cc1`, in data set [2], the t1/2 was greater than 30 min.
Take `CCCn1c(=O)c2ccccc2n2c(=S)[nH]nc12`: the t1/2 in data set [2] is on record as greater than 30 min.
`O=C(NCCCn1c(=O)c2cc(F)ccc2n2c(=S)[nH]nc12)C1CCNCC1` came in with a solubility in data set [1] greater than 60 µg/mL. Besides, the t1/2 in data set [2] is on record as greater than 30 min.
For `CN1CCN(CCn2c(=O)c3cc(F)ccc3n3c(=S)[nH]nc23)CC1` the same measures were greater than 54 µg/mL and greater than 30 min.
Turning to `CC(C)(C)OC(=O)CC[C@H](NC(=O)OC(C)(C)C)C(=O)NCCCn1c(=O)c2cc(F)ccc2n2c(=S)[nH]nc12`, in data set [1], the solubility amounted to 41.6 µg/mL (≈ 71.9 µM). For the same compound, in data set [2], the t1/2 came out at 3.8 min.
For `CC(C)(C)OC(=O)CC[C@@H](NC(=O)OC(C)(C)C)C(=O)NCCCn1c(=O)c2cc(F)ccc2n2c(=S)[nH]nc12`, in that order: 20.4 µg/mL (≈ 35.3 µM) and 25.1 min.
In the case of `O=C(NCCCn1c(=O)c2cc(F)ccc2n2c(=S)[nH]nc12)C1CCCNC1` (racemic), the solubility in data set [1] was found to be 29.6 µg/mL (≈ 73.2 µM). For the same compound, in data set [2], the t1/2 is greater than 30 min.
Turning to `O=C(Cc1ccncc1)NCCCn1c(=O)c2cc(F)ccc2n2c(=S)[nH]nc12`, the t1/2 in data set [2] is greater than 30 min. This compound returned a Papp in data set [3] of less than 1 ×10⁻⁶ cm/s.
`O=c1c2ncccc2n2c(=S)[nH]nc2n1CCc1ccccc1` showed a solubility in data set [1] of 26.9 µg/mL (≈ 83.2 µM). Also, the t1/2 in data set [2] is listed as greater than 30 min.
For the compound `N[C@@H](CCC(=O)O)C(=O)NCCOCCOCCOCCOCCC(=O)NCCCn1c(=O)c2cc(F)ccc2n2c(=S)[nH]nc12`, in data set [1], the solubility was greater than 99 µg/mL. Moreover, in data set [2], the t1/2 is greater than 30 min.
`CC(C)OCCCn1c(=O)c2cc(Cl)ccc2n2c(=S)[nH]nc12` returned a solubility in data set [1] of 8.6 µg/mL (≈ 24.4 µM).
With `N#Cc1ccccc1CC(=O)NCCCn1c(=O)c2cc(F)ccc2n2c(=S)[nH]nc12`, the t1/2 in data set [2] is given as greater than 30 min.
`NCCn1c(=O)c2cc(F)ccc2n2c(=S)[nH]nc12` gave a solubility in data set [1] greater than 41 µg/mL. Besides, in data set [2], the t1/2 was greater than 30 min.
Consider `O=C(Cc1ccc(F)cc1)NCCCn1c(=O)c2cc(F)ccc2n2c(=S)[nH]nc12`, for which, in data set [2], the t1/2 is listed as 26.3 min.
In the case of `CC(C)NC(=O)CCn1c(=O)c2cc(Cl)ccc2n2c(=S)[nH]nc12`, the solubility in data set [1] worked out at 8.1 µg/mL (≈ 22.1 µM).
As for `COc1ccc(CC(=O)NCCCn2c(=O)c3cc(F)ccc3n3c(=S)[nH]nc23)cc1`, in data set [2], the t1/2 was greater than 30 min.
In the case of `CC(C)(C)[C@H]1CC[C@H](C(=O)NCCCn2c(=O)c3cc(F)ccc3n3c(=S)[nH]nc23)CC1`, in data set [1], the solubility stood at 1.1 µg/mL (≈ 2.39 µM). Besides, the t1/2 in data set [2] is reported as greater than 30 min.
On to `O=C(Cc1ccccn1)NCCCn1c(=O)c2cc(F)ccc2n2c(=S)[nH]nc12`, for which the t1/2 in data set [2] is greater than 30 min.
In data set [1], `O=C(CC1CCNCC1)NCCCn1c(=O)c2cc(F)ccc2n2c(=S)[nH]nc12` yielded a solubility of 37.5 µg/mL (≈ 89.6 µM). In addition, the t1/2 in data set [2] was greater than 30 min.
With `O=c1c2cc(F)ccc2n2c(=S)[nH]nc2n1CCc1ccccc1`, the t1/2 in data set [2] is on record as greater than 30 min. For the same compound, the Papp in data set [3] came out at 77 ×10⁻⁶ cm/s.
In turn, `CCn1c(=O)c2cc(F)ccc2n2c(=S)[nH]nc12` registered a solubility in data set [1] greater than 39 µg/mL. The t1/2 in data set [2] was greater than 30 min.
`O=c1c2cc(I)ccc2n2c(=S)[nH]nc2n1CCc1ccccc1` yielded a solubility in data set [1] of less than 1 µg/mL. For the same compound, in data set [2], the t1/2 is recorded as greater than 30 min.
On to `O=C(NCCCn1c(=O)c2cc(F)ccc2n2c(=S)[nH]nc12)c1ccc(Cn2ccnc2)cc1`, for which, in data set [2], the t1/2 is given as greater than 30 min.
In data set [1], `CC(C)n1c(=O)c2ccccc2n2c(=S)[nH]nc12` came in with a solubility of 19.5 µg/mL (≈ 74.9 µM).
As for `CC(C)(C)OC(=O)NCCOCCOCCOCCC(=O)NCCCn1c(=O)c2cc(F)ccc2n2c(=S)[nH]nc12`, in data set [1], the solubility was greater than 88 µg/mL. Moreover, the t1/2 in data set [2] is recorded as 27.9 min.
For `NC1CCC(C(=O)NCCCn2c(=O)c3cc(F)ccc3n3c(=S)[nH]nc23)CC1` (racemic) the same measures were 38.8 µg/mL (≈ 92.7 µM) and greater than 30 min.
For `O=c1c2cc(F)ccc2n2c(=S)[nH]nc2n1CCc1ccncc1`, in that order: 10.9 µg/mL (≈ 31.9 µM) and greater than 30 min.
In the case of `O=c1c2cc(N3CCOCC3)ccc2n2c(=S)[nH]nc2n1CCc1ccccc1`, in data set [1], the solubility was 3.4 µg/mL (≈ 8.34 µM). The t1/2 in data set [2] is on record as greater than 30 min.
In the case of `O=C(Cc1ccc(O)cc1)NCCCn1c(=O)c2cc(F)ccc2n2c(=S)[nH]nc12`, the t1/2 in data set [2] is given as greater than 30 min.
For the compound `CC(C)CNC(=O)CCn1c(=O)c2ccccc2n2c(=S)[nH]nc12`, the solubility in data set [1] came to 30.8 µg/mL (≈ 89.2 µM).
For the compound `Cc1ccc2c(c1)c(=O)n(CCc1ccccc1)c1n[nH]c(=S)n21`, the solubility in data set [1] is less than 1 µg/mL. In addition, the t1/2 in data set [2] is greater than 30 min.

The record behind these values is ChEMBL document CHEMBL4673282, “Identification of a New Heterocyclic Scaffold for Inhibitors of the Polo-Box Domain of Polo-like Kinase 1” (J Med Chem, 2020).
